Patent publication US10501421B1, “Substituted benzimidazoles as modulators of Ras signaling” (VANDERBILT UNIVERSITY, priority 2017, dated 2019)
Counter-ions that a name gives are not always drawn.

Columns and labels:
[1] = biological target: Ras GEF SOS (Son of Sevenless) (Homo sapiens, UniProt Q07889); assay: SOS-mediated nucleotide exchange on Ras (BODIPY-GDP fluorescence); type: biochemical; conditions: SOS-mediated exchange of BODIPY-GDP for GTP on Ras
Protocol: Compounds of the present invention were tested for their ability to modify the rate at which Ras exchanges a labeled nucleotide guanosine diphosphate (GDP) analog for guanosine triphosphate (GTP). Briefly, test compounds, then GTP and the Ras GEF SOS (Son of Sevenless) are added to a buffered solution containing Ras protein loaded with BODIPY-GDP. Changes in fluoresence indicating exchange of the labeled GDP for GTP are monitored over time. Raw fluorescence data was fit to a single exponential decay function and derived rates were plotted as mean values. EC50 values were calculated by plotting mean derived rates as a function of compound concentration and fit using a four-parameter dose-response curve. This assay is performed in a method analogous to the assay disclosed in: Burns, M. C.; Sun, Q.; Daniels, R. N.; Camper, D. V.; Kennedy, J. P.; Phan, J.; Olejniczak, E. O.; Lee, T.; Waterson, A. G.; Rossanese, O. W.; Fesik, S. W. “Approach for targeting Ras with small molecules that activate SOS-mediated nucleotide exchange” Proc. Natl. Acad. Sci. 2014; 11(9): 3401-3406. PMCID: PMC3948241.

Son of Sevenless (SOS) = biological target: T1, Son of Sevenless (SOS) (Homo sapiens, UniProt Q07889); assay: Binding to SOS, fluorescence polarization anisotropy (FPA) probe displacement; conditions: displacement of FITC-conjugated probe (Example 285), affinity calculated from IC50
T1 sequence (Q07889 564-1049 limits assumed): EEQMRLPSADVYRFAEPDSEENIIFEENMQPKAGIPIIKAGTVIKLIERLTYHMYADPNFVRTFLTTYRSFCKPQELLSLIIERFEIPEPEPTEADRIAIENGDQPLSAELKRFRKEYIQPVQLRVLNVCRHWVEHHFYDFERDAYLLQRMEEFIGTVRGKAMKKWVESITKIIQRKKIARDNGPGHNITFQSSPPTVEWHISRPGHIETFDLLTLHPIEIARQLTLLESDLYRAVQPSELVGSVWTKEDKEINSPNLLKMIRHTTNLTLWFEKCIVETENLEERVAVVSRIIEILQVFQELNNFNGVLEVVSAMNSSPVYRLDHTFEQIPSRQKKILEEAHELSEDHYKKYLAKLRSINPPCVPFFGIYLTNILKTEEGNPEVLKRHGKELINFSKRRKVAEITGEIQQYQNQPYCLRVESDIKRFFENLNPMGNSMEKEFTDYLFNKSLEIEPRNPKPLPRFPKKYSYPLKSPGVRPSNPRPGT
Protocol: Compounds of the present invention were tested for their ability to bind to the Ras guanine exchange factor (GEF) Son of Sevenless (SOS). Binding to SOS was measured using a Fluorescence polarization anisotropy (FPA) assay that assesses the ability of a test compound to displace a fluorescent FITC-conjugated compound (Example 285). Briefly, the labeled probe compound is incubated with SOS in buffer. Changes in anisotropy indicative of displacement of the labeled probe for a test compound are assessed over a dose range of test compound. Data was analyzed by plotting fluorescence anisotropy values as a function of compound concentration. IC50 values were determined using a four-parameter dose-response (variable slope) and binding affinities were calculated from this IC50 value. This assay is performed in a method analogous to the assay disclosed in: Burns, M. C.; Sun, Q.; Daniels, R. N.; Camper, D. V.; Kennedy, J. P.; Phan, J.; Olejniczak, E. O.; Lee, T.; Waterson, A. G.; Rossanese, O. W.; Fesik, S. W. “Approach for targeting Ras with small molecules that activate SOS-mediated nucleotide exchange” Proc. Natl. Acad. Sci. 2014; 11(9): 3401-3406. PMCID: PMC3948241.

Ras GEF SOS (Son of Sevenless), sequence (P01112 1-166 partner limits assumed, one chain of several): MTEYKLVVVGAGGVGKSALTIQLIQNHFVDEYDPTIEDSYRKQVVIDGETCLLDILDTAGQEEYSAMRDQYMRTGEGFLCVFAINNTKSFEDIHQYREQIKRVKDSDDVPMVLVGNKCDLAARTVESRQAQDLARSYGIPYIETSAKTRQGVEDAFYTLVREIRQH

EC50 [1] [µM]	Ki (Son of Sevenless (SOS)) [µM]	SMILES
5 to 30	1 to 5	CCCN1CC[C@@H](C(=O)c2ccccc2)C1c1cc(Cl)cc2c1nc(N1CCNCC1)n2Cc1cc(C)c(F)c(C)c1 (stereo in doubt) [Example 149, ((2S,3R)-2-(6-chloro-1-(4-fluoro-3,5-dimethylbenzyl)-2-(piperazin-1-yl)-1H-benzo[d]imidazol-4-yl)-1-propylpyrrolidin-3-yl)(phenyl)methanone trifluoroacetate]
1 to 5	1 to 5	CCCN1CC[C@@H](C(=O)c2ccccc2)C1c1cc(Cl)cc2c1nc(N1CCNCC1)n2Cc1ccc(F)c(Cl)c1 (stereo in doubt) [Example 154, ((2S,3R)-2-(6-chloro-1-(3-chloro-4-fluorobenzyl)-2-(piperazin-1-yl)-1H-benzo[d]imidazol-4-yl)-1-propylpyrrolidin-3-yl)(phenyl)methanone trifluoroacetate]
5 to 30	> 5	Fc1ccc(Cn2c(N3CCNCC3)nc3ccccc32)cc1Cl [Example 7, 1-(3-chloro-4-fluorobenzyl)-2-(piperazin-1-yl)-1H-benzo[d]imidazole trifluoroacetate]
30 to 100	> 5	Fc1ccc(Cn2c(N3CCNCC3)nc3ccccc32)cc1 [Example 10, 1-(4-fluorobenzyl)-2-(piperazin-1-yl)-1H-benzo[d]imidazole trifluoroacetate]
1 to 5	1 to 5	Cc1cc2nc(N3CCNCC3)n(Cc3ccc(F)c(Cl)c3)c2cc1C [Example 16, 1-(3-chloro-4-fluorobenzyl)-5,6-dimethyl-2-(piperazin-1-yl)-1H-benzo[d]imidazole trifluoroacetate]
1 to 5	1 to 5	Cc1cc2nc(NCCN)n(Cc3ccc(F)c(Cl)c3)c2cc1C [Example 17, N1-(1-(3-chloro-4-fluorobenzyl)-5,6-dimethyl-1H-benzo[d]imidazol-2-yl)ethane-1,2-diamine trifluoroacetate]
5 to 30	> 5	Cc1cc2nc(N3CCNCC3)n(Cc3cc(F)cc(F)c3)c2cc1C [Example 18, 1-(3,5-difluorobenzyl)-5,6-dimethyl-2-(piperazin-1-yl)-1H-benzo[d]imidazole trifluoroacetate]
5 to 30	> 5	Cc1cc2nc(N3CCNCC3)n(Cc3ccc(Cl)cc3)c2cc1C [Example 19, 1-(4-chlorobenzyl)-5,6-dimethyl-2-(piperazin-1-yl)-1H-benzo[d]imidazole trifluoroacetate]
5 to 30	> 5	Cc1cc2nc(NCCN)n(Cc3ccc(Cl)cc3)c2cc1C [Example 20, N^1-(1-(4-chlorobenzyl)-5,6-dimethyl-1H-benzo[d]imidazol-2-yl)ethane-1,2-diamine trifluoroacetate]
5 to 30	> 5	Cc1cc2nc(N3CCNCC3)n(Cc3ccc(F)cc3)c2cc1C [Example 21, 1-(4-fluorobenzyl)-5,6-dimethyl-2-(piperazin-1-yl)-1H-benzo[d]imidazole trifluoroacetate]
5 to 30	> 5	Cc1cc2nc(NCCN)n(Cc3ccc(F)cc3)c2cc1C [Example 22, N^1-(1-(4-fluorobenzyl)-5,6-dimethyl-1H-benzo[d]imidazol-2-yl)ethane-1,2-diamine trifluoroacetate]
1 to 5	> 5	Cc1cc2nc(N3CCN(C)CC3)n(Cc3ccc(F)cc3)c2cc1C [Example 24, 1-(4-fluorobenzyl)-5,6-dimethyl-2-(4-methylpiperazin-1-yl)-1H-benzo[d]imidazole trifluoroacetate]
5 to 30	> 5	Cc1cc2nc(NCCO)n(Cc3ccc(F)c(Cl)c3)c2cc1C [Example 26, 2-((1-(3-chloro-4-fluorobenzyl)-5,6-dimethyl-1H-benzo[d]imidazol-2-yl)amino)ethan-1-ol]
–	0.5 to 1	N[C@@H](Cc1ccccc1)c1cc(Cl)cc2c1nc(N1CCNCC1)n2Cc1ccc(F)c(Cl)c1 [Example 166, (S)-1-(6-chloro-1-(3-chloro-4-fluorobenzyl)-2-(piperazin-1-yl)-1H-benzo[d]imidazol-4-yl)-2-phenylethan-1-amine trifluoroacetate]
–	0.5 to 1	COC(=O)c1cnn(CC(C)C)c1-c1cc(C)cc2c1nc(N1CCNCC1)n2Cc1ccc(F)c(Cl)c1 [Example 179, methyl 5-(1-(3-chloro-4-fluorobenzyl)-6-methyl-2-(piperazin-1-yl)-1H-benzo[d]imidazol-4-yl)-1-isobutyl-1H-pyrazole-4-carboxylate]
–	0.5 to 1	CCCNC(=O)c1cnn(CC(C)C)c1-c1cc(C)cc2c1nc(N1CCNCC1)n2Cc1cc(C)c(F)c(C)c1 [Example 181, 5-(1-(4-fluoro-3,5-dimethylbenzyl)-6-methyl-2-(piperazin-1-yl)-1H-benzo[d]imidazol-4-yl)-1-isobutyl-N-propyl-1H-pyrazole-4-carboxamide trifluoroacetate]
–	0.5 to 1	Cc1cc(N2CCN(C(C)C)CC2)c2nc(N3CCNCC3)n(Cc3cc(C)c(F)c(C)c3)c2c1 [Example 194, 1-(4-fluoro-3,5-dimethylbenzyl)-4-(4-isopropylpiperazin-1-yl)-6-methyl-2-(piperazin-1-yl)-1H-benzo[d]imidazole trifluoroacetate]
–	0.5 to 1	Cc1cc(OCCNCCO)c2nc(N3CCNCC3)n(Cc3cc(C)c(F)c(C)c3)c2c1 [Example 199, 2-((2-((1-(4-fluoro-3,5-dimethylbenzyl)-6-methyl-2-(piperazin-1-yl)-1H-benzo[d]imidazol-4-yl)oxy)ethyl)amino)ethan-1-ol]
–	> 5	Cc1cc(O[C@H]2CCNC2)c2nc(N3CCNCC3)n(Cc3cc(C)c(F)c(C)c3)c2c1 [Example 200, (S)-1-(4-fluoro-3,5-dimethylbenzyl)-6-methyl-2-(piperazin-1-yl)-4-(pyrrolidin-3-yloxy)-1H-benzo[d]imidazole]
–	0.5 to 1	Cc1cc(OCC2CCNCC2)c2nc(N3CCNCC3)n(Cc3cc(C)c(F)c(C)c3)c2c1 [Example 202, 1-(4-fluoro-3,5-dimethylbenzyl)-6-methyl-2-(piperazin-1-yl)-4-(piperidin-4-ylmethoxy)-1H-benzo[d]imidazole]
–	> 5	Cc1cc2nc(S(=O)(=O)CCN)n(Cc3ccc(F)c(Cl)c3)c2cc1C [Example 211, 2-((1-(3-chloro-4-fluorobenzyl)-5,6-dimethyl-1H-benzo[d]imidazol-2-yl)sulfonyl)ethan-1-amine trifluoroacetate]
5 to 30	–	NCc1ccc2c(c1)nc(N1CCNCC1)n2Cc1ccc(F)c(Cl)c1 [Example 281, [1-[(3-chloro-4-fluorophenyl)methyl]-2-piperazin-1-ylbenzimidazol-5-yl]methanamine]
1 to 5	–	Cc1cc2nc(N3CCC(N)C3)n(Cc3ccc(F)c(Cl)c3)c2cc1C (centres unmarked) [Example 289, 1-(1-(3-chloro-4-fluorobenzyl)-5,6-dimethyl-1H-benzo[d]imidazol-2-yl)pyrrolidin-3-amine]
5 to 30	–	Cc1cc(Cn2c(NCCN)nc3c(O)cccc32)ccc1F [Example 295, 2-((2-aminoethyl)amino)-1-(4-fluoro-3-methylbenzyl)-1H-benzo[d]imidazol-4-ol]
–	1 to 5	Cc1cc2nc(N3C[C@@H](C)N[C@@H](C)C3)n(Cc3cc(C)c(F)c(C)c3)c2cc1C [Example 336, 2-((3S,5R)-3,5-dimethylpiperazin-1-yl)-1-(4-fluoro-3,5-dimethylbenzyl)-5,6-dimethyl-1H-benzo[d]imidazole]
